Source: publication PMC3713009 (PLoS ONE, 2013)
Like-named read-outs stand apart in the source and are kept apart here. One block for each compound: values may come before it.

Columns and labels:
HDAC3/NCOR1 complex = HDAC3/NCOR1 complex (Homo sapiens, UniProt O15379); experiment: HDAC3 enzyme assay (fluorescent activity kit, HDAC3/NCOR1 complex); format: biochemical; details: for inhibition at 10 µM: library screen, o-aminoanilides T1–T336 without purification, values read from Figure 7; for IC50 HDAC3 / IC50: class I, means of at least three experiments;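 on all read-outs here: in vitro enzyme activity of HDAC3 complexed with NCOR1, fluorescence read at 360 nm excitation and 460 nm emission, inhibition relative to uninhibited control wells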
Chain of HDAC3/NCOR1 complex (O15379 whole entry): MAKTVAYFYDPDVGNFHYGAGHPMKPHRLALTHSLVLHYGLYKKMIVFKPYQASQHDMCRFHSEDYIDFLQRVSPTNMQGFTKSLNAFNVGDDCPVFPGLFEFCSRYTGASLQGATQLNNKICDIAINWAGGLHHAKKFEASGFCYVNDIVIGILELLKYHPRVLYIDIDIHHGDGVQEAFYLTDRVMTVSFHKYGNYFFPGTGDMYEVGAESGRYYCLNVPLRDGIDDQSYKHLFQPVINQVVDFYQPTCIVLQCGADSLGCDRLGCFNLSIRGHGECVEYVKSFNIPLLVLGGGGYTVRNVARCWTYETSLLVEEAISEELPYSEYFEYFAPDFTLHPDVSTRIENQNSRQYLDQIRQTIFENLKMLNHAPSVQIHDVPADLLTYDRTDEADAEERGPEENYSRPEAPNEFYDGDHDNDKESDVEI
Chain of HDAC3/NCOR1 complex (O75376 395-489 partner limits assumed): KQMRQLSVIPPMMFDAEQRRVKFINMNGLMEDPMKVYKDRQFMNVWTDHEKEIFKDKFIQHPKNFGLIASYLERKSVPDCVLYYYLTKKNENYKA

[1] = target: total HDACs from HeLa nuclear extracts; experiment: Total HDACs enzyme assay (HeLa nuclear extracts); format: biochemical; details: pure resynthesized compounds, means of at least three experiments
HDAC1 = target: T1, HDAC1 (Homo sapiens, UniProt Q13547); experiment: HDAC1 enzyme assay; format: biochemical; details: class I; means of at least three experiments
T1 construct: purchased SignalChem Pharmaceuticals Inc. H83-30G
T1 sequence (Q13547 whole entry): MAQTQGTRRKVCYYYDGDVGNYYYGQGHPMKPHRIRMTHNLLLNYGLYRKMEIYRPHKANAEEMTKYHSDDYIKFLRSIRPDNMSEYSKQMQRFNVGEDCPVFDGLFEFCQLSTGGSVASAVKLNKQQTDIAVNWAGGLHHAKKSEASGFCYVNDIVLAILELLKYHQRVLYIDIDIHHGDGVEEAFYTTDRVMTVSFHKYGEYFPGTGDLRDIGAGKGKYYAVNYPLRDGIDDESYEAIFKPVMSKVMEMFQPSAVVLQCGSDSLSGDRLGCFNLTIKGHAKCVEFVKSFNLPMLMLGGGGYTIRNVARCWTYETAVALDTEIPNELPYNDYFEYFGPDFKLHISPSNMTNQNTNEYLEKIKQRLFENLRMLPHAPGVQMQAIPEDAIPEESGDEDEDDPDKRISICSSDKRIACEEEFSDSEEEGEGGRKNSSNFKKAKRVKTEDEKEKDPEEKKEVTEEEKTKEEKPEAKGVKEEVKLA
Protocol: (§1) The fluorescence of the wells was measured on a fluorometric reader with excitation set at 360 nm and emission detection set at 460 nm, and the values of % inhibition were calculated from the fluorescence readings of inhibited wells relative to those of control wells. […] IC50 values were determined by regression analysis of the concentration/inhibition data.

[2] = system: acetylated NF-κB in HCT116 cells; experiment: Western blot of acetylated NF-κB in HCT116 cells; format: cell-based, human; details: 8 h treatment
[3] = system: acetylated p53 in HCT116 cells; experiment: Western blot of acetylated p53 in HCT116 cells; format: cell-based, human; details: 8 h treatment
[4] = system: acetylated α-tubulin in HCT116 cells; experiment: Western blot of acetylated α-tubulin in HCT116 cells; format: cell-based, human; details: 8 h treatment
[5] = system: colon cancer HCT116 cells; experiment: Cell growth inhibition assay (MTT), HCT116; format: cell-based; details: Homo sapiens, read-out: GI50 HCT116 (colon cancer)
[6] = system: prostate cancer PC3 cells; experiment: Cell growth inhibition assay (MTT), PC3; format: cell-based; details: Homo sapiens, read-out: GI50 PC3 (prostate cancer)
[7] = system: OM10.1 cells latently infected with HIV-1; experiment: Viral p24 antigen assay in latently HIV-1-infected OM10.1 cells; format: cell-based
Protocol: Figure 13 Induction of viral replication from OM10.1 cells latently infected with HIV-1. […] HIV-1 p24 antigen in the cell culture supernatant was measured using ELISA. Experiments were performed in triplicate, and the means ±S.D. are indicated. **P<0.01, *P<0.05; Student’s t test results indicated differences between DMSO and inhibitors.
The p24 antigen level in the cell culture supernatant was measured by p24 antigen capture ELISA assay using a commercial kit (RETRO-TEK HIV-1 p24 Antigen ELISA kit; Zepto Metrix, Buffalo, NY, USA) according to the method reported in ref [54].

HDAC8 = target: T2, HDAC8 (Homo sapiens, UniProt Q9BY41); experiment: HDAC8 enzyme assay; format: biochemical; details: class I; means of at least three experiments
T2 construct: purchased Cyclex Company Limited CY-1158
T2 sequence (Q9BY41 1-377): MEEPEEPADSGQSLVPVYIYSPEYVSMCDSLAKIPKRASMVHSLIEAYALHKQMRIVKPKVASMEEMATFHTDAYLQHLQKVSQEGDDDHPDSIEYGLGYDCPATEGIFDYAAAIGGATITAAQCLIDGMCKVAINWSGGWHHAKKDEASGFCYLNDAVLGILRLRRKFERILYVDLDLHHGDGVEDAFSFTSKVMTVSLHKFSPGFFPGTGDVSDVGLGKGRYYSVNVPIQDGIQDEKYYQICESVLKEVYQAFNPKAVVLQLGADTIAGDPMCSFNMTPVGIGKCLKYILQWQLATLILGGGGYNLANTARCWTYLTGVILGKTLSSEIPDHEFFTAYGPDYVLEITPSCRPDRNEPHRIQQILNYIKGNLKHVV
Protocol: as §1

HDAC4 = target: T3, HDAC4 (Homo sapiens, UniProt P56524); experiment: HDAC4 enzyme assay; format: biochemical; details: class IIa; means of at least three experiments
T3 construct: purchased BPS Bioscience Incorporated
T3 sequence (P56524 627-1084 limits assumed): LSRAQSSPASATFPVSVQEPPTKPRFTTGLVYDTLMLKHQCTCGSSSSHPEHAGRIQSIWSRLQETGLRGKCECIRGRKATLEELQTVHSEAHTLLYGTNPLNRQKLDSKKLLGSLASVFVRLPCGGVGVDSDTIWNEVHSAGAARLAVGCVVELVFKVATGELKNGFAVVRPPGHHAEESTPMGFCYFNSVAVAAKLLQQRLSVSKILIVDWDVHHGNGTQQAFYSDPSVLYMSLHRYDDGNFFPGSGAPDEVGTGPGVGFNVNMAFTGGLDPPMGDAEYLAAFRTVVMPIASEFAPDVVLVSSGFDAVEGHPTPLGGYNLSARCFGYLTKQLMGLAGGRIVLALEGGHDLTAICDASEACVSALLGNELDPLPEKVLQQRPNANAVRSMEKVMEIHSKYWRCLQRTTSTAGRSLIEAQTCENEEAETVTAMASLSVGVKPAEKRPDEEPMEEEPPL

HDAC6 = target: T4, HDAC6 (Homo sapiens, UniProt Q9UBN7); experiment: HDAC6 enzyme assay; format: biochemical; details: class IIb; means of at least three experiments
T4 construct: purchased BIOMOL Research Laboratories SE-508
T4 sequence (Q9UBN7 1-1215): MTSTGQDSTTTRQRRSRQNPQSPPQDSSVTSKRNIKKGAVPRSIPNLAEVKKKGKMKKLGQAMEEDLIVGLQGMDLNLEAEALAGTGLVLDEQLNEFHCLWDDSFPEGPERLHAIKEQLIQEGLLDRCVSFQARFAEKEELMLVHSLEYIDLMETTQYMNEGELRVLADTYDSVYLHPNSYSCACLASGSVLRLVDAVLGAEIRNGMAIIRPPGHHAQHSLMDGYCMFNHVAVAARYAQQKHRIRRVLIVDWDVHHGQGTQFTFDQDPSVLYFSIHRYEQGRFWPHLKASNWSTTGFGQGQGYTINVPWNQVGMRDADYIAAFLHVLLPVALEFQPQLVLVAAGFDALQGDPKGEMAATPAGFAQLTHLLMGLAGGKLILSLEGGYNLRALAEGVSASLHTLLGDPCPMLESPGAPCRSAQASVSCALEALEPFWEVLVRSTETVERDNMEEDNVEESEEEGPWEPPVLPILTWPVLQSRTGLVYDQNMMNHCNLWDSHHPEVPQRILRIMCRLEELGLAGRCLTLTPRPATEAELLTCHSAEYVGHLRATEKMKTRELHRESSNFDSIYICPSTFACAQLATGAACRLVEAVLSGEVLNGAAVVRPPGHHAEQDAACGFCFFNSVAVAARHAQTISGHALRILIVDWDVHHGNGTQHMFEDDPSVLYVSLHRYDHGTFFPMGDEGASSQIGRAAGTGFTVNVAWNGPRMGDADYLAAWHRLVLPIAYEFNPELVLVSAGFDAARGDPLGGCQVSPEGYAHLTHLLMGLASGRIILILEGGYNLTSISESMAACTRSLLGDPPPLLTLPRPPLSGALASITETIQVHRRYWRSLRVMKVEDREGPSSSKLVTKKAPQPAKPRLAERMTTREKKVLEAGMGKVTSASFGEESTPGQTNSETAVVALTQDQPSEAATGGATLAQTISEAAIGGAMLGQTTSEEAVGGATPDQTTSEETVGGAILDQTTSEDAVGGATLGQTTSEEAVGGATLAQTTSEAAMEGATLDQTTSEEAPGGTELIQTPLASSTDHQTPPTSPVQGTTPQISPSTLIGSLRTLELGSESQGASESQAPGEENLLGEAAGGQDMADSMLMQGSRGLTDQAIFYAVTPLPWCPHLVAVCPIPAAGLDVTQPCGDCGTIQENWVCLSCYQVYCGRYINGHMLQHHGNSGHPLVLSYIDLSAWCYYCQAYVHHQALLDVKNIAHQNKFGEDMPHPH

[8] = 1 µM, means of two experiments, read-out: HDAC3 inhibition (%)
[9] = 3 µM, means of two experiments, read-out: HDAC3 inhibition (%)
[10] = HCT-116, 48 h exposure, MTT, means of at least three experiments
[11] = PC-3, 48 h exposure, MTT, means of at least three experiments
[12] = 48 h, 0.1, 1 and 10 µM, effect at 1 µM and/or 10 µM

SMILES: Nc1ccccc1NC(=O)c1ccc(-c2cn(CCc3ccsc3)nn2)cc1 [Compound T247, N-(2-Aminophenyl)-4-[1-(2-thiophen-3-ylethyl)-1H-[1], [2], [3]triazol-4-yl]benzamide]
- inhibition at 1 µM (HDAC3/NCOR1 complex; [8]): 89%
- inhibition at 3 µM (HDAC3/NCOR1 complex; [9]): 95%
- inhibition at 10 µM (HDAC3/NCOR1 complex): 93%
- IC50 HDAC3 (HDAC3/NCOR1 complex): submicromolar
- IC50 [1]: > 100 µM
- IC50 (HDAC1): 19 µM
- NF-κB acetylation [2]: dose-dependent increase of NF-κB acetylation
- levels of acetylated p53 [3]: not elevated
- acetylation of α-tubulin [4]: did not enhance the acetylation of α-tubulin
- GI50 [5, 10]: 1.9 µM
- GI50 [6, 11]: 1.4 µM
- HIV-1 expression (p24 antigen in supernatant) [7, 12]: significantly stimulated HIV-1 expression

SMILES: Nc1ccccc1NC(=O)c1ccc(-c2cn(CCc3ccc(F)cc3)nn2)s1 [Compound T318]
- HDAC3 inhibition (%) (HDAC3/NCOR1 complex; 1 µM, means of two experiments): 77%
- HDAC3 inhibition (%) (HDAC3/NCOR1 complex; 3 µM, means of two experiments): 91%

SMILES: Nc1ccccc1NC(=O)c1cccc(-c2cn(CC(=O)c3ccccc3)nn2)c1 [Compound T199]
- HDAC3 inhibition (%) (HDAC3/NCOR1 complex; 1 µM, means of two experiments): 59%
- HDAC3 inhibition (%) (HDAC3/NCOR1 complex; 3 µM, means of two experiments): 83%

SMILES: COc1ccccc1CCn1cc(-c2ccc(C(=O)Nc3ccccc3N)cc2)nn1 [Compound T266]
- HDAC3 inhibition (%) (HDAC3/NCOR1 complex; 1 µM, means of two experiments): 73%
- HDAC3 inhibition (%) (HDAC3/NCOR1 complex; 3 µM, means of two experiments): 91%

SMILES: Cc1ccc(C(=O)NCC(=O)NCCC(=O)Nc2ccccc2N)cc1 [compound 1, reference compound]
- inhibition at 1 µM (HDAC3/NCOR1 complex; [8]): 9%
- inhibition at 3 µM (HDAC3/NCOR1 complex; [9]): 29%
- inhibition at 10 µM (HDAC3/NCOR1 complex): 47%
- IC50 (HDAC3/NCOR1 complex): 19 µM
- IC50 [1]: > 100 µM
- IC50 (HDAC1): > 100 µM
- IC50 (HDAC8): > 100 µM
- IC50 (HDAC4): > 100 µM
- IC50 (HDAC6): > 100 µM
- GI50 [5, 10]: 81 µM
- GI50 [6, 11]: > 100 µM
- HIV-1 expression (p24 antigen in supernatant) [7, 12]: did not show any activity

SMILES: Nc1ccccc1NC(=O)CCc1cn(Cc2cccc(-c3ccccc3)c2)nn1 [Compound T52]
- HDAC3 inhibition (%) (HDAC3/NCOR1 complex; 1 µM, means of two experiments): 55%
- HDAC3 inhibition (%) (HDAC3/NCOR1 complex; 3 µM, means of two experiments): 81%

SMILES: Nc1ccccc1NC(=O)c1ccc(-c2cn(CCc3cccc([N+](=O)[O-])c3)nn2)s1 [Compound T326, 5-{1-[2-(3-Nitrophenyl)ethyl]-1H-[1], [2], [3]triazol-4-yl}thiophene-2-carboxylic acid (2-aminophenyl)amide]
- inhibition at 1 µM (HDAC3/NCOR1 complex; [8]): 86%
- inhibition at 3 µM (HDAC3/NCOR1 complex; [9]): 95%
- inhibition at 10 µM (HDAC3/NCOR1 complex): 98%
- IC50 (HDAC3/NCOR1 complex): 0.26 µM
- IC50 HDAC3 (HDAC3/NCOR1 complex): submicromolar
- IC50 [1]: > 100 µM
- IC50 (HDAC1): > 100 µM
- IC50 (HDAC8): > 100 µM
- IC50 (HDAC4): > 100 µM
- IC50 (HDAC6): > 100 µM
- NF-κB acetylation [2]: dose-dependent increase of NF-κB acetylation
- levels of acetylated p53 [3]: not elevated
- acetylation of α-tubulin [4]: did not enhance the acetylation of α-tubulin
- GI50 [5, 10]: 0.94 µM
- GI50 [6, 11]: 1 µM
- HIV-1 expression (p24 antigen in supernatant) ([7]; 48 h, 10 µM): less active at 10 µM due to cytotoxicity
- HIV-1 expression (p24 antigen in supernatant) [7, 12]: significantly stimulated HIV-1 expression

SMILES: O=C(CCCCCCC(=O)Nc1ccccc1)NO [vorinostat (3), vorinostat, reference compound]
- inhibition at 1 µM (HDAC3/NCOR1 complex; read-out: HDAC3 inhibition (%)): 83%
- inhibition at 3 µM (HDAC3/NCOR1 complex; read-out: HDAC3 inhibition (%)): 93%
- inhibition at 1 µM (HDAC3/NCOR1 complex; read-out: HDAC3 inhibition (%) at 1 µM): 98%
- NF-κB acetylation [2]: induced non-selective acetylation of NF-κB and p53
- levels of acetylated p53 [3]: induced non-selective acetylation of NF-κB and p53
- GI50 ([5]; HCT-116, 48 h): 1.3 µM
- GI50 ([6]; PC-3, 48 h): 1.6 µM
- HIV-1 expression (p24 antigen in supernatant) [7, 12]: significantly stimulated HIV-1 expression

SMILES: Nc1ccccc1NC(=O)c1ccc(-c2cn(Cc3cccc4ccccc34)nn2)cc1 [Compound T251]
- HDAC3 inhibition (%) (HDAC3/NCOR1 complex; 1 µM, means of two experiments): 75%
- HDAC3 inhibition (%) (HDAC3/NCOR1 complex; 3 µM, means of two experiments): 92%

Next, values leading:

- HDAC3 inhibition (%) (HDAC3/NCOR1 complex; 1 µM, means of two experiments): 74%
- HDAC3 inhibition (%) (HDAC3/NCOR1 complex; 3 µM, means of two experiments): 91%
SMILES: Cc1ccccc1CCn1cc(-c2ccc(C(=O)Nc3ccccc3N)cc2)nn1 [Compound T263]

- HDAC3 inhibition (%) (HDAC3/NCOR1 complex; 1 µM, means of two experiments): 75%
- HDAC3 inhibition (%) (HDAC3/NCOR1 complex; 3 µM, means of two experiments): 89%
SMILES: Nc1ccccc1NC(=O)c1ccc(-c2cn(CCc3cccc(F)c3)nn2)cc1 [Compound T261]

- HDAC3 inhibition (%) (HDAC3/NCOR1 complex; 1 µM, means of two experiments): 55%
- HDAC3 inhibition (%) (HDAC3/NCOR1 complex; 3 µM, means of two experiments): 80%
SMILES: Nc1ccccc1NC(=O)c1ccc(-c2cn(CCC3CCCCC3)nn2)cc1 [Compound T254]

- HDAC3 inhibition (%) (HDAC3/NCOR1 complex; 1 µM, means of two experiments): 80%
- HDAC3 inhibition (%) (HDAC3/NCOR1 complex; 3 µM, means of two experiments): 92%
SMILES: COc1cccc(CCn2cc(-c3ccc(C(=O)Nc4ccccc4N)cc3)nn2)c1 [Compound T267]
